Laboratory results published in patent publication US20260215428A1, “WEED CONTROL METHOD” (SYNGENTA CROP PROTECTION AG, priority 2023, published 2026).

How the values were obtained:
Format in all cases: in vivo
Eleusine indica [1] = experiment: Glasshouse post-emergence test, visual damage, Tables B1-2 and B1-3; settings: 14 days after application
Procedure: Seeds of a variety of test species are sown in standard soil in pots. For each treatment, three replicate pots containing 10-15 plants per one-inch pot were sprayed at the 2-3 leaf stage. […] The test plants are then grown in a glasshouse under controlled conditions in a glasshouse (at 24/16° C., day/night; 14 hours light; 65% humidity) and watered twice daily. Plants were assessed for visual damage compared to the untreated control 14 days after application (0=0% damage; 100=100% damage).

Sorghum halepense = experiment: Further glasshouse test versus other ACCase-inhibiting herbicides, Table B2-4; settings: 21 days after application
Excerpt: (§1) Further tests were employed to test the efficacy of a compound of Formula I versus other ACCase-inhibiting herbicides. The five main targets were Lolium multiflorum, Eleusine indica, Digitaria insularis, Sorghum halepense and Echinochloa crus-galli. Collectively, the populations contained all the major target-site resistance mutations affecting ACCase herbicides. Two L. multiflorum (LM-NTSR-1 and LM-NTSR-2) and one E. crus-galli (ECG-NTSR-1) populations were characterised exclusively by non-target-site resistance (“NTSR”). The target-site resistant L. multiflorum and E. indication populations were 100% homozygous for different ACCase mutations whilst the D. insularis, S. halepense and E. crus-galli samples contained a mixture of homozygous wild and mutant individuals at different genotypic frequencies. Additional underlying NTSR cannot be ruled out in the populations characterised by target-site resistance.
(§2) Around 50 seeds of each of the 24 weed populations were sown in 12-cm pots containing a mixture of peat and compost in a 1:1 ratio. The pots were watered, fertilised and kept in controlled glasshouse conditions set at 24° C./16 hr day, 18° C. night, 65% relative humidity, and a photon flux density of approximately 250 μmol quanta m^−2 s^−1 for Lolium multiflorum. The E. indica, D. insularis, S. halepense and E. crus-galli plants were kept in a separate glasshouse bay characterised by a 17 H photoperiod of 180 μmol m^−2 s^−1 with temperatures of 25° C. day and 19° C. night and 65% relative humidity. When the plants were at the two to four-leaf stage, they were treated with the various ACCase-inhibiting herbicides at 0, 15, 30, 60, 120 and 240 g ai ha^−1 in a spray cabinet mounted with a single mobile Teejet flat fan nozzle (11002VS) calibrated to deliver 200 L ha^−1 at 200 kPa. The L. multiflorum populations were treated by a compound of Formula Ic, clodinafop-propargyl, pinoxaden, cycloxydim and clethodim and the warm season grass weeds E. indica, D. insularis, S. halepense and E. crus-galli were sprayed with a Compound Ic and the commonly employed haloxyfop-methyl and clethodim. Three replicate pots were used per population. Plants were assessed for visual damage compared to the untreated control 21 days after application (0=0% damage; 100=100% damage).

Eleusine indica [2] = experiment: Further glasshouse test versus other ACCase-inhibiting herbicides, Table B2-2; settings: 21 days after application
Excerpt: as §1, §2

Echinochloa Crus-galli = experiment: Further glasshouse test versus other ACCase-inhibiting herbicides, Table B2-5; settings: 21 days after application
Excerpt: as §1, §2

Digitaria insularis = experiment: Further glasshouse test versus other ACCase-inhibiting herbicides, Table B2-3; settings: 21 days after application
Excerpt: as §1, §2

Volunteer corn = experiment: 26 field trials, control of volunteer corn, Table B1-6

## CC#Cc1ccc(C2=C(OC(=O)OC)C3CCC(C3)C2=O)c(OC)c1 (centres unmarked) [Compound Ic]
Eleusine indica [1]; Table B1-2, biotype 87% I1781L (heterozygous), 15 g/ha
  visual damage: 97%
Eleusine indica [1]; Table B1-2, biotype 87% I1781L (heterozygous), 30 g/ha
  visual damage: 100%
Eleusine indica [1]; Table B1-2, biotype 87% I1781L (heterozygous), 60 g/ha
  visual damage: 100%
Eleusine indica [1]; Table B1-2, biotype 87% I1781L (heterozygous), 120 g/ha
  visual damage: 100%
Eleusine indica [1]; Table B1-2, biotype D2078G + W2027C (heterozygous), first entry, 15 g/ha
  visual damage: 87%
Eleusine indica [1]; Table B1-2, biotype D2078G + W2027C (heterozygous), first entry, 30 g/ha
  visual damage: 100%
Eleusine indica [1]; Table B1-2, biotype D2078G + W2027C (heterozygous), first entry, 60 g/ha
  visual damage: 100%
Eleusine indica [1]; Table B1-2, biotype D2078G + W2027C (heterozygous), first entry, 120 g/ha
  visual damage: 100%
Eleusine indica [1]; Table B1-2, biotype D2078G + W2027C (heterozygous), second entry, 15 g/ha
  visual damage: 83%
Eleusine indica [1]; Table B1-2, biotype D2078G + W2027C (heterozygous), second entry, 30 g/ha
  visual damage: 100%
Eleusine indica [1]; Table B1-2, biotype D2078G + W2027C (heterozygous), second entry, 60 g/ha
  visual damage: 100%
Eleusine indica [1]; Table B1-2, biotype D2078G + W2027C (heterozygous), second entry, 120 g/ha
  visual damage: 100%
Eleusine indica [1]; Table B1-2, biotype I2041N (heterozygous), 15 g/ha
  visual damage: 70%
Eleusine indica [1]; Table B1-2, biotype I2041N (heterozygous), 30 g/ha
  visual damage: 100%
Eleusine indica [1]; Table B1-2, biotype I2041N (heterozygous), 60 g/ha
  visual damage: 100%
Eleusine indica [1]; Table B1-2, biotype I2041N (heterozygous), 120 g/ha
  visual damage: 100%
Eleusine indica [1]; Table B1-2, biotype NTSR (non-target site resistance), 1 g/ha
  visual damage: 20%
Eleusine indica [1]; Table B1-2, biotype NTSR (non-target site resistance), 2 g/ha
  visual damage: 40%
Eleusine indica [1]; Table B1-2, biotype NTSR (non-target site resistance), 4 g/ha
  visual damage: 60%
Eleusine indica [1]; Table B1-2, biotype NTSR (non-target site resistance), 8 g/ha
  visual damage: 73%
Eleusine indica [1]; Table B1-2, biotype Sensitive, 15 g/ha
  visual damage: 100%
Eleusine indica [1]; Table B1-2, biotype Sensitive, 30 g/ha
  visual damage: 100%
Eleusine indica [1]; Table B1-2, biotype Sensitive, 60 g/ha
  visual damage: 100%
Eleusine indica [1]; Table B1-2, biotype Sensitive, 120 g/ha
  visual damage: 100%
Eleusine indica [1]; Table B1-3, Pop1 (mix of sensitive, D2078G and G2096A biotypes), 15 g/ha
  visual damage: 98%
Eleusine indica [1]; Table B1-3, Pop1 (mix of sensitive, D2078G and G2096A biotypes), 30 g/ha
  visual damage: 100%
Eleusine indica [1]; Table B1-3, Pop1 (mix of sensitive, D2078G and G2096A biotypes), 60 g/ha
  visual damage: 100%
Eleusine indica [1]; Table B1-3, Pop1 (mix of sensitive, D2078G and G2096A biotypes), 120 g/ha
  visual damage: 100%
Eleusine indica [1]; Table B1-3, Pop2 (mix of sensitive, D2078G and G2096A biotypes), 15 g/ha
  visual damage: 86%
Eleusine indica [1]; Table B1-3, Pop2 (mix of sensitive, D2078G and G2096A biotypes), 30 g/ha
  visual damage: 100%
Eleusine indica [1]; Table B1-3, Pop2 (mix of sensitive, D2078G and G2096A biotypes), 60 g/ha
  visual damage: 100%
Eleusine indica [1]; Table B1-3, Pop2 (mix of sensitive, D2078G and G2096A biotypes), 120 g/ha
  visual damage: 100%
Eleusine indica [1]; Table B1-3, biotype Sensitive, 15 g/ha
  visual damage: 100%
Eleusine indica [1]; Table B1-3, biotype Sensitive, 30 g/ha
  visual damage: 100%
Eleusine indica [1]; Table B1-3, biotype Sensitive, 60 g/ha
  visual damage: 100%
Eleusine indica [1]; Table B1-3, biotype Sensitive, 120 g/ha
  visual damage: 100%
Sorghum halepense; biotype Sensitive, 15 g/ha
  visual damage: 95%
Sorghum halepense; biotype Sensitive, 30 g/ha
  visual damage: 97%
Sorghum halepense; biotype Sensitive, 60 g/ha
  visual damage: 100%
Sorghum halepense; biotype Sensitive, 120 g/ha
  visual damage: 100%
Sorghum halepense; biotype Sensitive, 240 g/ha
  visual damage: 100%
Sorghum halepense; biotype W2027C, 15 g/ha
  visual damage: 65%
Sorghum halepense; biotype W2027C, 30 g/ha
  visual damage: 80%
Sorghum halepense; biotype W2027C, 60 g/ha
  visual damage: 98%
Sorghum halepense; biotype W2027C, 120 g/ha
  visual damage: 100%
Sorghum halepense; biotype W2027C, 240 g/ha
  visual damage: 100%
Eleusine indica [2]; biotype D2078G, 15 g/ha
  visual damage: 88%
Eleusine indica [2]; biotype D2078G, 30 g/ha
  visual damage: 100%
Eleusine indica [2]; biotype D2078G, 60 g/ha
  visual damage: 100%
Eleusine indica [2]; biotype D2078G, 120 g/ha
  visual damage: 100%
Eleusine indica [2]; biotype D2078G, 240 g/ha
  visual damage: 100%
Eleusine indica [2]; biotype G2096A, 15 g/ha
  visual damage: 93%
Eleusine indica [2]; biotype G2096A, 30 g/ha
  visual damage: 98%
Eleusine indica [2]; biotype G2096A, 60 g/ha
  visual damage: 100%
Eleusine indica [2]; biotype G2096A, 120 g/ha
  visual damage: 100%
Eleusine indica [2]; biotype G2096A, 240 g/ha
  visual damage: 100%
Eleusine indica [2]; biotype I2041N, 15 g/ha
  visual damage: 50%
Eleusine indica [2]; biotype I2041N, 30 g/ha
  visual damage: 98%
Eleusine indica [2]; biotype I2041N, 60 g/ha
  visual damage: 100%
Eleusine indica [2]; biotype I2041N, 120 g/ha
  visual damage: 100%
Eleusine indica [2]; biotype I2041N, 240 g/ha
  visual damage: 100%
Eleusine indica [2]; biotype Sensitive, 15 g/ha
  visual damage: 100%
Eleusine indica [2]; biotype Sensitive, 30 g/ha
  visual damage: 100%
Eleusine indica [2]; biotype Sensitive, 60 g/ha
  visual damage: 100%
Eleusine indica [2]; biotype Sensitive, 120 g/ha
  visual damage: 100%
Eleusine indica [2]; biotype Sensitive, 240 g/ha
  visual damage: 100%
Eleusine indica [2]; biotype W2027C, 15 g/ha
  visual damage: 100%
Eleusine indica [2]; biotype W2027C, 30 g/ha
  visual damage: 100%
Eleusine indica [2]; biotype W2027C, 60 g/ha
  visual damage: 100%
Eleusine indica [2]; biotype W2027C, 120 g/ha
  visual damage: 100%
Eleusine indica [2]; biotype W2027C, 240 g/ha
  visual damage: 100%
Echinochloa Crus-galli; biotype Sensitive, 15 g/ha
  visual damage: 100%
Echinochloa Crus-galli; biotype Sensitive, 30 g/ha
  visual damage: 100%
Echinochloa Crus-galli; biotype Sensitive, 60 g/ha
  visual damage: 100%
Echinochloa Crus-galli; biotype Sensitive, 120 g/ha
  visual damage: 100%
Echinochloa Crus-galli; biotype Sensitive, 240 g/ha
  visual damage: 100%
Echinochloa Crus-galli; biotype W2027C, 15 g/ha
  visual damage: 100%
Echinochloa Crus-galli; biotype W2027C, 30 g/ha
  visual damage: 100%
Echinochloa Crus-galli; biotype W2027C, 60 g/ha
  visual damage: 100%
Echinochloa Crus-galli; biotype W2027C, 120 g/ha
  visual damage: 100%
Echinochloa Crus-galli; biotype W2027C, 240 g/ha
  visual damage: 100%
Echinochloa Crus-galli; population ECG-NTSR-1 (non-target-site resistance), 15 g/ha
  visual damage: 90%
Echinochloa Crus-galli; population ECG-NTSR-1 (non-target-site resistance), 30 g/ha
  visual damage: 100%
Echinochloa Crus-galli; population ECG-NTSR-1 (non-target-site resistance), 60 g/ha
  visual damage: 100%
Echinochloa Crus-galli; population ECG-NTSR-1 (non-target-site resistance), 120 g/ha
  visual damage: 100%
Echinochloa Crus-galli; population ECG-NTSR-1 (non-target-site resistance), 240 g/ha
  visual damage: 100%
Digitaria insularis; biotype Sensitive, 15 g/ha
  visual damage: 100%
Digitaria insularis; biotype Sensitive, 30 g/ha
  visual damage: 100%
Digitaria insularis; biotype Sensitive, 60 g/ha
  visual damage: 100%
Digitaria insularis; biotype Sensitive, 120 g/ha
  visual damage: 100%
Digitaria insularis; biotype Sensitive, 240 g/ha
  visual damage: 100%
Digitaria insularis; biotype W2027C, 15 g/ha
  visual damage: 100%
Digitaria insularis; biotype W2027C, 30 g/ha
  visual damage: 100%
Digitaria insularis; biotype W2027C, 60 g/ha
  visual damage: 100%
Digitaria insularis; biotype W2027C, 120 g/ha
  visual damage: 100%
Digitaria insularis; biotype W2027C, 240 g/ha
  visual damage: 100%
Volunteer corn; 25 g/ha
  Control (14d): 93%
  Control (28d): 99%
Volunteer corn; 50 g/ha
  Control (14d): 99%
  Control (28d): 100%
Volunteer corn; 100 g/ha
  Control (14d): 99%
  Control (28d): 100%
Volunteer corn; 200 g/ha
  Control (14d): 99%
  Control (28d): 100%
